Laboratory results taken from EPA's ToxRefDB 2.

Legend:
[1] = system: rat; conditions: Combined chronic toxicity/carcinogenicity, wistar, Oral, Feed, dose end: 104 week
[2] = system: dog; conditions: Chronic toxicity, beagle, Oral, Feed, dose end: 52 week, group: systemic
[3] = system: mouse; conditions: Combined chronic toxicity/carcinogenicity, other, Oral, [Not Specified], dose end: 99 week, group: systemic
[4] = system: mouse; conditions: Combined chronic toxicity/carcinogenicity, other, Oral, Feed, dose end: 104 week, group: systemic
[5] = system: dog; conditions: Subchronic oral toxicity in nonrodent, beagle, Feed, dose end: 13 week, group: systemic, systemic / organ weight / lung / relative to body weight + systemic / pathology gross / lung / [other] + systemic / pathology microscopic / …
[6] = system: rat; conditions: Prenatal developmental toxicity study, other, Oral, Gavage/Intubation, dose end: 15 GD
[7] = system: rat; conditions: Combined chronic toxicity/carcinogenicity, fischer, Oral, Feed, dose end: 13 week, group: systemic
[8] = system: rat; conditions: Combined chronic toxicity/carcinogenicity, fischer, Oral, Feed, dose end: 119 week, group: systemic
[9] = system: mouse; conditions: Combined chronic toxicity/carcinogenicity, b6c3f1, Oral, Feed, dose end: 5 week, group: systemic
[10] = system: mouse; conditions: Combined chronic toxicity/carcinogenicity, b6c3f1, Oral, Feed, dose end: 104 week, group: systemic
[11] = group: cholinesterase, cholinesterase / cholinesterase / cholinesterase / erythrocyte cholinesterase (che)
[12] = group: systemic, systemic / organ weight / kidney / absolute + systemic / organ weight / ovary / absolute
[13] = group: systemic, systemic / organ weight / kidney / absolute + systemic / organ weight / ovary / absolute + systemic / organ weight / brain / relative to …
[14] = systemic / pathology microscopic / lung / [other] + systemic / urinalysis / [other] / urine
[15] = systemic / in life observation / body weight / body weight + systemic / in life observation / food consumption / food consumption + systemic…
[16] = systemic / in life observation / food consumption / food consumption + systemic / pathology microscopic / blood / [other] + systemic / …
[17] = group: developmental, developmental / developmental malformation / bone / delayed ossification + systemic / in life observation / body weight / fetal weight
[18] = group: maternal, systemic / in life observation / body weight / body weight gain + systemic / in life observation / clinical signs / emaciation + systemic / …
[19] = systemic / organ weight / spleen / absolute + systemic / organ weight / spleen / relative to body weight
[20] = systemic / in life observation / body weight / body weight gain + systemic / organ weight / liver / relative to body weight + systemic / …
[21] = systemic / organ weight / liver / absolute + systemic / organ weight / liver / relative to body weight + systemic / pathology microscopic / …
[22] = systemic / organ weight / kidney / absolute + systemic / organ weight / liver / relative to body weight
[23] = systemic / organ weight / kidney / absolute + systemic / organ weight / liver / relative to body weight + systemic / organ weight / kidney…

Compound C[n+]1ccc(-c2cc[n+](C)cc2)cc1.[Cl-].[Cl-] [Paraquat dichloride] has an LEL [1, 11] of 15 mg/kg/day, an LOAEL [1, 11] of 15 mg/kg/day and an NEL [1, 11] of 5 mg/kg/day. The NOAEL [1, 11] was 5 mg/kg/day, the NEL [1, 12] was 5 mg/kg/day and the NOAEL [1, 12] was 5 mg/kg/day. For the same compound, the LEL [1, 13] was 15 mg/kg/day, the LOAEL [1, 13] was 15 mg/kg/day and the LEL [2, 14] was 0.45 mg/kg/day. It also gave an NEL [2, 14] of under 0.45 mg/kg/day, an LOAEL ([2]; systemic / pathology microscopic / lung / inflammation) of 0.93 mg/kg/day and an NOAEL ([2]; systemic / pathology microscopic / lung / inflammation + systemic / pathology microscopic / ear / squamous cell papilloma + systemic / in …) of 0.45 mg/kg/day. The LOAEL [3, 15] was 5.62 mg/kg/day, the NOAEL [3, 15] was 1.88 mg/kg/day and the LEL [3, 16] was 1.88 mg/kg/day. The NEL [3, 16] was under 1.88 mg/kg/day, the NOAEL ([4]; systemic / hematology / leukocyte (wbc) count differential / leukocyte (wbc)) was 3.82 mg/kg/day and the LOAEL ([4]; systemic / hematology / leukocyte (wbc) count differential / leukocyte (wbc) + systemic / hematology / erythrocyte (rbc) count differential…) was 13 mg/kg/day. It also gave an LEL ([4]; systemic / pathology microscopic / mammary gland / [other]) of 3.82 mg/kg/day, an NEL ([4]; systemic / pathology microscopic / mammary gland / [other] + systemic / clinical chemistry / glucose / glucose + systemic / clinical …) of 1.32 mg/kg/day and an LEL [5] of 1.5 mg/kg/day. The LOAEL [5] was 1.5 mg/kg/day, the NEL [5] was 0.5 mg/kg/day and the NOAEL [5] was 0.5 mg/kg/day. It also gave an LOAEL ([6]; group: developmental, developmental / developmental malformation / bone / delayed ossification) of 5 mg/kg/day, an LEL [6, 17] of 5 mg/kg/day and an NEL [6, 17] of 1 mg/kg/day. The NOAEL [6, 17] was 1 mg/kg/day, the LEL [6, 18] was 5 mg/kg/day and the LOAEL [6, 18] was 5 mg/kg/day. The NEL [6, 18] was 1 mg/kg/day and the NOAEL [6, 18] was 1 mg/kg/day.

Compound CC(C)=CC1C(C(=O)OCc2cccc(Oc3ccccc3)c2)C1(C)C (stereo not drawn) [Phenothrin] has an LOAEL ([7]; systemic / clinical chemistry / cholesterol / cholesterol + systemic / clinical chemistry / lactic acid dehydrogenase (ldh) / lactic acid …) of 216 mg/kg/day, an LEL [7, 19] of 21 mg/kg/day and an NEL [7, 19] of under 21 mg/kg/day. It also gave an NOAEL ([7]; systemic / organ weight / spleen / absolute + systemic / organ weight / spleen / relative to body weight + systemic / clinical chemistry / …) of 70 mg/kg/day, an NOAEL ([8]; systemic / in life observation / body weight / body weight gain) of 50 mg/kg/day and an LEL [8, 20] of 150 mg/kg/day. It also gave an LOAEL [8, 20] of 150 mg/kg/day, an NEL ([8]; systemic / organ weight / liver / relative to body weight) of 50 mg/kg/day and an LOAEL [9, 21] of 565 mg/kg/day. It also gave an NEL [9, 21] of 57 mg/kg/day, an NOAEL [9, 21] of 190 mg/kg/day and an LEL ([9]; systemic / pathology microscopic / liver / necrosis) of 190 mg/kg/day. The LEL [10, 22] was 45 mg/kg/day, the NEL [10, 22] was under 45 mg/kg/day and the LOAEL [10, 23] was 150 mg/kg/day. The NOAEL [10, 23] was 45 mg/kg/day.
